# Measurements taken from patent US6864286B2, “Inhibitors of the EGF-receptor tyrosine kinase and methods for their use” (Parker Hughes Institute, priority 1998, dated 2005).
# pIC50: −log10 of the molar value.
# Key:
# [1] = test system: MDA-MB-231 cells; test: MTT cytotoxicity assay, MDA-MB-231; format: cell-based; settings: Homo sapiens, 36 hours, read-out: Cancer Cell Cytotoxicity IC50 MDA-MB-231
# Method: (§1) In order to determine the cytotoxic activity of LFM and its analogs against breast cancer cells, cells in alpha-MEM supplemented with 10% (v/v) fetal calf serum were treated with various concentrations of the compounds for 24 hours at 37° C., washed twice in alpha-MEM, and then used in either MTT assays or in vitro invasion assays, as described hereinafter.
# (§2) The cytotoxicity of various compounds against human breast cancer cell lines was analyzed using the MTT (3-[4,5-dimethylthiazol-2-yl]-2,5-diphenyl tetrazolium bromide) assay (Boehringer Mannheim Corp., Indianapolis, Ind.). Uckun F. M., et al. Clin. Cancer Res. 1998, 4, 901-912. Exponentially growing breast cancer cells were seeded into a 96-well plate at a density of 2.5×10^4 cells/well and incubated for 36 hours at 37° C. prior to drug exposure. On the day of treatment, culture medium was carefully aspirated from the wells and replaced with fresh medium containing the LFM analogs at concentrations ranging from 2 to 250 μM. Triplicate wells were used for each treatment. The cells were incubated with the various compounds for 36 hours at 37° C. in a humidified 5% CO2 atmosphere. To each well, 10 μl of MTT (0.5 mg/ml final concentration) was added and the plates were incubated at 37° C. for 4 hours to allow MTT to form formazan crystals by reacting with metabolically active cells. The formazan crystals were solubilized overnight at 37° C. in a solution containing 10% SDS in 0.01 M HCl. The absorbence of each well was measured in a microplate reader (Labsystems) at 540 nm and a reference wavelength of 690 nm.
# (§3) To translate the absorbance A540 values into the number of live cells in each well, the A540 values were compared to those on standard A540-versus-cell number curves generated for each cell line. The percent survival was calculated using the formula: % survival=Live cell number[test]/Live cell number [control]×100. The IC50 values were calculated by non-linear regression analysis using an Graphpad Prism software version 2.0 (Graphpad Software, Inc., San Diego, Calif.).
# [2] = test system: MDA-MB-361 cells; test: MTT cytotoxicity assay, MDA-MB-361; format: cell-based; settings: Homo sapiens, 36 hours, read-out: Cancer Cell Cytotoxicity IC50 MDA-MB-361
# Method: as §1, §2, §3
# [3] = molecular target: T1, EGFR tyrosine kinase (Homo sapiens, UniProt P00533); test: Cell-free EGFR immune complex kinase assay; format: biochemical; settings: EGFR immunoprecipitated from MDA-MB-231 lysates, 1 hour incubation, read-out: EGFR Inhibition IC50
# T1 construct: anti-EGFR immunoprecipitates from lysates of MDA-MB-231 human breast cancer cells; endogenous in cells; host or cells: MDA-MB-231 (ATCC HTB-26)
# T1 sequence (P00533 25-1210): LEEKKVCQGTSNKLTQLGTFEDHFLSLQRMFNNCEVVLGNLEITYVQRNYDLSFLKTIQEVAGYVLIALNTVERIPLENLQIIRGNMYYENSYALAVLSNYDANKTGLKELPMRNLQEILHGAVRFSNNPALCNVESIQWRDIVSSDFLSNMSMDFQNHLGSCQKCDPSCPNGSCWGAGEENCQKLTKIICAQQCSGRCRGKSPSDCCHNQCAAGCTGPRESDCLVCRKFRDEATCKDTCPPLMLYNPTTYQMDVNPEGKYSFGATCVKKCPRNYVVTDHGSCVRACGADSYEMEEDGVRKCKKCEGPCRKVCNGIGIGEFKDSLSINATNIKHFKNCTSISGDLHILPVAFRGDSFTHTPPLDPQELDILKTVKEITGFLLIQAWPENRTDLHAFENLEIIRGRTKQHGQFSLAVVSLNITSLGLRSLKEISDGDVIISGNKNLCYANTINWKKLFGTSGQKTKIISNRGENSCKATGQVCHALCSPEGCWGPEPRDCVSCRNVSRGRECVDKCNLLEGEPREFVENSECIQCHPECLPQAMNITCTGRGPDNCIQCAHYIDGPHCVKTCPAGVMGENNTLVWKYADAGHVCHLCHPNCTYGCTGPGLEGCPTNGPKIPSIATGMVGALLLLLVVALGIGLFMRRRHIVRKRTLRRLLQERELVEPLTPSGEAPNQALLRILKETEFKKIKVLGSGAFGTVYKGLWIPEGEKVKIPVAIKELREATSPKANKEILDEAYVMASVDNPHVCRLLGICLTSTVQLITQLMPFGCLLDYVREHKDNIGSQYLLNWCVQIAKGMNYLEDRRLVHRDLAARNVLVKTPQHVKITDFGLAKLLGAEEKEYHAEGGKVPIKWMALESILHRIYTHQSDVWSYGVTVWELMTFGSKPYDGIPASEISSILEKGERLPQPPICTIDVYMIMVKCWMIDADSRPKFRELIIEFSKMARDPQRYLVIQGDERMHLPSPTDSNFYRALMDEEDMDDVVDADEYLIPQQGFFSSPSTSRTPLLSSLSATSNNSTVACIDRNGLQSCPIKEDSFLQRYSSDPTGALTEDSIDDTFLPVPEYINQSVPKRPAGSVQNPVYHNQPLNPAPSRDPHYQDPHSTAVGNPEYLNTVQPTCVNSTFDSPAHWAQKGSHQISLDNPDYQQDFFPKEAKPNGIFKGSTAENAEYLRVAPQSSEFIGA
# Method: For EGFR immune complex kinase assays, 24-hours after treatment with leflunomide analogs, MDA-MB-231 breast cancer cells were stimulated with 20 ng/mL EGF for 5 minutes, lysed in 1% Nonidet-P-40 buffer, and cell lysates were immunoprecipitated with an anti-EGFR antibody reactive with the sequence Ala^351-Asp^364 of the human EGFR (Upstate Biotechnology Inc. [UBI] Catalog # 05-104) (Uckun, F. M., et al. Clin. Can. Res. 1998, 4, 901). EGFR immune complexes were examined for tyrosine phosphorylation by Western blot analysis, as described by Uckun, F. M., et al. Clin. Can. Res. 1998, 4, 901. All anti-phosphotyrosine Western blots were subjected to densitometric scanning using the automated AMBIS system (Automated Microbiology System, Inc., San Diego, Calif.) and for each time point a % inhibition value was determined by comparing the density ratios of the tyrosine phosphorylated EGFR protein bands to those of the baseline sample and using the formula: % Inhibition=100−100×[Density of tyrosine phosphorylated EGFR band]test sample/[Density of tyrosine phosphorylated EGFR band]baseline control sample. The IC50 values were determined using an Inplot program (Graphpad Software, Inc., San Diego, Calif.).
# In other experiments, MDA-MB-231 cells were stimulated with 10 ng/ml EGF prior to immunoprecipitation of the EGFR. EGFR immune complexes were incubated for 1 hour at room temperature with various LFM analogs and tyrosine kinase assays were performed in the presence of [γ-^32P]-ATP, as previously described (Uckun, F. M., et al. Clin. Can. Res. 1998, 4, 901; Narla, R. K., et al. Clin. Can. Res 1998, 1405; Uckun, F. M., et al. Science 1996, 22, 1096; Uckun, F. M., et al. Science 1995, 267, 886). The kinase assay gels were analyzed both by autoradiography and using the BioRad Storage Phosphor Imager System (BioRad, Hercules, Calif.) for quantitative scanning.
# [4] = test system: MDA-MB-231 cells; test: Confocal laser scanning microscopy of treated cells; format: cell-based, human; settings: MDA-MB-231, 100 μM, 24 hours, α-tubulin / TOTO-3 staining
# Method: Immunofluorescence was used to examine the morphologic features of breast cancer cells treated with LFM and its analogs. Before the experiment, cells were trypsinized from rapidly growing tissue culture flasks and seeded onto sterile 22 mm^2 coverslips in 6-well culture plates. Cells on coverslips were returned to the incubator for 24 hours prior to treatment. The following day, drugs were added from a stock solution made in DMSO to a final concentration of 100 μM. Final DMSO concentration was 0.1% in both test samples and controls. Cells were returned to a 37° C. incubator for 24 hours before further processing.
# At 24 hours, coverslips were fixed in −20° C. methanol for 15 minutes followed by a 15 minute incubation in phosphate buffered saline +0.1% Triton X-100(PBS-Tx). Coverslips were next incubated with a monoclonal antibody against α-tubulin (Sigma Chemical Co, St. Louis, Mo.) at a dilution of 1:1000 for 40 minutes in a humidified chamber at 37° C. Coverslips were washed for 15 minutes in PBS-Tx followed by a 40 min incubation with a goat anti-mouse IgG antibody conjugated to FITC (Amersham Corp., Arlington Heights, Ill.). The coverslips were again rinsed in PBS-Tx and incubated with 5 μM TOTO-3 (Molecular Probes, Eugene Oreg.) for 20 minutes to label the nuclear DNA. […]
pIC50 [3],Structure (SMILES),pIC50 [1],pIC50 [2],morphology and microtubular organization of treated cells [4]
< 4.00,"CC(O)=C(C#N)C(=O)Nc1ccc(Br)cc1 [LFM-A1, α-Cyano-β-hydroxy-β-methyl-N-(4-bromophenyl)propenamide]",< 3.52,< 3.52,–
< 4.00,"CC(O)=C(C#N)C(=O)Nc1ccc(Cl)cc1 [LFM-A2, α-Cyano-β-hydroxy-β-methyl-N-(4-chlorophenyl)propenamide]",< 3.52,< 3.52,–
< 4.00,"CC(O)=C(C#N)C(=O)Nc1ccc(F)cc1 [LFM-A3, α-Cyano-β-hydroxy-β-methyl-N-(4-fluorophenyl)propenamide]",< 3.52,< 3.52,did not affect the morphology or microtubular organization
< 4.00,"CC(O)=C(C#N)C(=O)Nc1cccc(Br)c1 [LFM-A9, α-Cyano-β-hydroxy-β-methyl-N-(3-bromophenyl)propenamide]",< 3.52,< 3.52,–
< 4.00,"CC(O)=C(C#N)C(=O)Nc1cccc(F)c1 [LFM-A11, α-Cyano-β-hydroxy-β-methyl-N-(3-fluorophenyl)propenamide]",< 3.52,< 3.52,–
< 4.00,"CC(O)=C(C#N)C(=O)Nc1ccccc1 [LFM-A14, α-Cyano-β-hydroxy-β-methyl-N-(phenyl)propenamide]",< 3.52,< 3.52,–

# Second part, the molecule before the results:
Structure (SMILES),pIC50 [3],pIC50 [1],pIC50 [2],morphology and microtubular organization of treated cells [4]
"CC(O)=C(C#N)C(=O)Nc1ccccc1C(F)(F)F [LFM-A4, α-Cyano-β-hydroxy-β-methyl-N-[2-(trifluoromethyl)phenyl]-propenamide]",< 4.00,< 3.52,< 3.52,–
"CC(O)=C(C#N)C(=O)Nc1ccccc1Br [LFM-A5, α-Cyano-β-hydroxy-β-methyl-N-(2-bromophenyl)propenamide]",< 4.00,< 3.52,< 3.52,–
"CC(O)=C(C#N)C(=O)Nc1ccccc1Cl [LFM-A6, α-Cyano-β-hydroxy-β-methyl-N-(2-chlorophenyl)propenamide]",< 4.00,< 3.52,< 3.52,–
"CC(O)=C(C#N)C(=O)Nc1ccccc1F [LFM-A7, α-Cyano-β-hydroxy-β-methyl-N-(2-fluorophenyl)propenamide]",4.13,< 3.52,< 3.52,–
"CC(O)=C(C#N)C(=O)Nc1cccc(C(F)(F)F)c1 [LFM-A8, α-Cyano-β-hydroxy-β-methyl-N-[3-(trifluoromethyl)phenyl]-propenamide]",< 4.00,< 3.52,< 3.52,–
"CC(O)=C(C#N)C(=O)Nc1cccc(Cl)c1 [LFM-A10, α-Cyano-β-hydroxy-β-methyl-N-(3-chlorophenyl)propenamide]",< 4.00,< 3.52,< 3.52,–
"CC(O)=C(C#N)C(=O)Nc1cc(Br)ccc1Br [LFM-A13, α-Cyano-β-hydroxy-β-methyl-N-(2,5-dibromophenyl)propenamide]",< 4.00,< 3.52,< 3.52,–
